In assay [1] the target is PIM1 (Homo sapiens (Human), UniProt P11309). Nature of the assay: biochemical. The assay is classed as biochemical. Conditions: 20 pM PIM1, 1 μM FAM-peptide, 10 μM ATP, 90 minutes at room temperature; read-out: PIM1 LC3K (KI).
Procedure: Reaction Buffer contained 10 mM HEPES, pH 7.2, 10 mM MgCl2, 0.01% Tween 20, 2 mM DTT. Termination Buffer contained 190 mM HEPES, pH 7.2, 0.015% Brij-35, 0.2% Coating Reagent 3 (Caliper Life Sciences, Hopkinton, Mass.), 20 mM EDTA. Separation Buffer contained 100 mM HEPES, pH 7.2, 0.015% Brij-35, 0.1% Coating Reagent 3, 1:200 Coating Reagent 8 (Caliper Life Sciences, Hopkinton, Mass.), 10 mM EDTA and 5% DMSO.
PIM reactions were carried out in a final volume of 10 μL per well in a 384-well plate. […] After 90 minutes of incubation at room temperature, the phosphorylation reaction was stopped by the addition of 10 μL Termination Buffer. The product and substrate in each independent reaction were separated on a 12-sipper microfluidic chip (Caliper Life Sciences, Hopkinton, Mass.) run on a Caliper LC3000® (Caliper Life Sciences, Hopkinton, Mass.). The separation of product and substrate was optimized by choosing voltages and pressure using Caliper's Optimizer software (Hopkinton, Mass.). The separation conditions used a downstream voltage of −500V, an upstream voltage of −2150V, and a screening pressure of −1.2 psi. […] Substrate conversion was calculated from the electropherogram using HTS Well Analyzer software (Caliper Life Sciences, Hopkinton, Mass.). Ki values for the test compound were calculated.
Assay [2] deals with BaF3 parental cells. The experiment in a line: In vitro cell proliferation, BaF3 parental line + IL3.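 Note: BaF3 parental cells are murine IL-3 dependent pro-B cells grown with 2 ng/mL mIL-3, 384-well format, viability read by luminescence.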 The assay is classed as cell-based, murine. Conditions: Mus musculus, BaF3, BaF3 parental, mIL-3, incubated overnight, CELL TITER GLO; read-out: Prolif BaF3 IL3 (IC50).
The subject of assay [3] is BaF3 PIM1 cells. Nature of the assay: In vitro cell proliferation, BaF3 transfected with PIM1.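 Note: murine IL-3-dependent pro-B BaF3 cells transfected with PIM1, compound exposure overnight at 37 °C under 5% CO2, viability read as luminescence.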 The assay is classed as cell-based, murine. Conditions: Mus musculus, BaF3, read-out: Prolif BaF3 PIM1 (IC50), BaF3 PIM1 cells, incubated overnight, CELL TITER GLO.
Procedure: (§1) BaF3 parental line was obtained from the DSMZ repository. […] Media for BaF3 parental line contained RPMI, 10% FBS, 2 mM L-Glutamine, 2 ng/mL mIL-3. Media for BaF3 PIM1 & 2 lines contained RPMI, 10% FBS, 2 mM L-Glutamine, 250 μg/mL. Media for MM1.S (multiple myeloma cells) line contained RPMI, 10% FBS, 2 mM L-Glutamine.
(§2) BaF3, a murine interleukin-3 dependent pro-B cell line, parental cells, BaF3 PIM1 cells, BaF3 PIM2 cells, and MM1.S (multiple myeloma) cells were seeded at 2 k/well, 5 k/well, 5 k/well, and 10 k/well respectively, in a 384-well plate, at 45 μL/well. Test compound was added at 5 μL/well. BaF3 cells (parental and transfected) were incubated overnight, while MM1.S cells were incubated for 72 hours at 37° C., 5% CO2. CELL TITER GLO® Reagent (Promega) was added at 50 μL/well, the plates were incubated for 30 minutes, and their luminescence read on an HT Analyst. IC50/EC50 values for the test compound were calculated.
Assay [4] deals with MM1.S (multiple myeloma) cells. The experiment in a line: In vitro cell proliferation, MM1.S multiple myeloma cells.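 Note: cells cultured in RPMI with 10% FBS and 2 mM L-Glutamine, seeded in 384-well plates, exposed to compound, cell viability measured by luminescence after CellTiter-Glo addition.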 The assay is classed as cell-based. The note with it: Homo sapiens, MM1.S, 72 h, MM1.S cells, 72 hours, CELL TITER GLO; read-out: Prolif MM1S ATP (EC50).
Procedure: as §1, §2

PIM1, sequence (P11309 whole entry): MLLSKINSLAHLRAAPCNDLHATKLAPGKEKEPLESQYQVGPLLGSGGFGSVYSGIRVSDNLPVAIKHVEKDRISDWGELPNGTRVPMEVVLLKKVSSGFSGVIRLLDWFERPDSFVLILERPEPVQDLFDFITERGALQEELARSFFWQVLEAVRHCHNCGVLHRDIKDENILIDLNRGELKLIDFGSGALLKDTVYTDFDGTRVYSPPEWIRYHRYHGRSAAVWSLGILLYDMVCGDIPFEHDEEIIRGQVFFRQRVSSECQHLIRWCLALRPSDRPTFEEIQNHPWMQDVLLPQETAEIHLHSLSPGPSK

The Ki is a dissociation constant, usually derived from enzyme kinetics or from competition with a known ligand. Usually IC50 stands for the concentration that inhibits the measured activity by half. The term EC50 denotes the concentration giving half of the maximal effect. As for `Cn1ncc(NC(=O)c2csc(-c3c(F)cccc3F)n2)c1[C@@H]1CC[C@@H](N)[C@H](F)CO1` [Example 321, N-(5-((2S,5R,6S)-5-amino-6-fluorooxepan-2-yl)-1-methyl-1H-pyrazol-4-yl)-2-(2,6-difluorophenyl)thiazole-4-carboxamide], the Ki in assay [1] was 0.0137 nM. For the same molecule, the half-maximal inhibitory concentration (IC50) in assay [2] was 4400 nM; in assay [3], 50.6 nM. Moreover, in assay [4], the EC50 was 385 nM.
The matching figures for `Cn1ncc(NC(=O)c2csc(-c3ccccc3F)n2)c1[C@@H]1CC[C@@H](N)[C@H](F)CO1` [Example 322, N-(5-((2S,5R,6S)-5-amino-6-fluorooxepan-2-yl)-1-methyl-1H-pyrazol-4-yl)-2-(2-fluorophenyl)thiazole-4-carboxamide]: 0.072 nM, 6300 nM, 113 nM and 1500 nM.
In the case of `Cn1ncc(NC(=O)c2nc(-c3ccccc3C(F)(F)F)sc2N)c1[C@@H]1CC[C@@H](N)[C@H](F)CO1` [Example 323, 5-amino-N-(5-((2S,5R,6S)-5-amino-6-fluorooxepan-2-yl)-1-methyl-1H-pyrazol-4-yl)-2-(2-(trifluoromethyl)phenyl)thiazole-4-carboxamide], the Ki in assay [1] was 0.283 nM. The IC50 is above 25000 nM in assay [2] and 186 nM in assay [3]. Besides, the half-maximal effective concentration (EC50) in assay [4] was determined as 10000 nM.
For `Cn1ncc(NC(=O)c2nc(-c3cccc(F)c3F)sc2N)c1[C@@H]1CC[C@@H](N)[C@H](F)CO1` [Example 324, 5-amino-N-(5-((2S,5R,6S)-5-amino-6-fluorooxepan-2-yl)-1-methyl-1H-pyrazol-4-yl)-2-(2,3-difluorophenyl)thiazole-4-carboxamide] the same measures were 0.019 nM, above 25000 nM, 45.3 nM and 116 nM.
The matching figures for `Cn1ncc(NC(=O)c2csc(-c3ccc(F)cc3F)n2)c1[C@@H]1CC[C@@H](N)[C@H](F)CO1` [Example 325, N-(5-((2S,5R,6S)-5-amino-6-fluorooxepan-2-yl)-1-methyl-1H-pyrazol-4-yl)-2-(2,4-difluorophenyl)thiazole-4-carboxamide]: 0.05 nM, 6300 nM, 142 nM and 735 nM.
Turning to `Cn1ncc(NC(=O)c2csc(-c3ccccn3)n2)c1[C@@H]1CC[C@@H](N)[C@H](F)CO1` [Example 326, N-(5-((2S,5R,6S)-5-amino-6-fluorooxepan-2-yl)-1-methyl-1H-pyrazol-4-yl)-2-(pyridin-2-yl)thiazole-4-carboxamide], the inhibition constant (Ki) in assay [1] was 0.031 nM. The figures for the IC50 in assay [2] and in assay [3] were 12400 nM and 132 nM, respectively. Also, the EC50 in assay [4] came to 436 nM.
For `Cn1ncc(NC(=O)c2csc(-c3ccccc3)n2)c1[C@@H]1CC[C@@H](N)[C@H](F)CO1` [Example 327, N-(5-((2S,5R,6S)-5-amino-6-fluorooxepan-2-yl)-1-methyl-1H-pyrazol-4-yl)-2-phenylthiazole-4-carboxamide] the same measures were 0.021 nM, 16800 nM, 176 nM and 648 nM.
In the case of `Cn1ncc(NC(=O)c2nc(-c3c(F)cccc3Cl)sc2N)c1[C@@H]1CC[C@@H](N)[C@H](F)CO1` [Example 328, 5-amino-N-(5-((2S,5R,6S)-5-amino-6-fluorooxepan-2-yl)-1-methyl-1H-pyrazol-4-yl)-2-(2-chloro-6-fluorophenyl)thiazole-4-carboxamide], the Ki in assay [1] turned out to be 0.036 nM. For the same molecule, the IC50 in assay [2] came to 12500 nM; in assay [3], 21.4 nM. In addition, the EC50 in assay [4] worked out at 1500 nM.
For `COC1(c2cc(F)c(-c3nc(C(=O)Nc4cnn(C)c4[C@@H]4CC[C@@H](N)[C@H](F)CO4)cs3)c(F)c2)COC1` [Example 339, N-(5-((2S,5R,6S)-5-amino-6-fluorooxepan-2-yl)-1-methyl-1H-pyrazol-4-yl)-2-(2,6-difluoro-4-(3-methoxyoxetan-3-yl)phenyl)thiazole-4-carboxamide] the same measures were 0.014 nM, above 25000 nM, 52.2 nM and 1900 nM.

The values above are taken from patent US9328106B2, “Cyclic ether pyrazol-4-yl-heterocyclyl-carboxamide compounds and methods of use” (Genentech, Inc., priority 2012, dated 2016).
